# According to US12558337B2, “Formulations comprising melflufen” (ON[…], priority 2019, dated 2026):
# Structures can show the parent of a compound that is named as a salt.
# Experiment: Stability of liquid formulations containing a melflufen salt and propylene glycol at room temperature (HPLC-MS)
# Format: physicochemical
# Conditions: for Purity of melfufen in the liquid formulation containing a melfufen salt and propylene glycol at RT: 20 mg/mL in propylene glycol, RT (20-25° C.); for stability on storage: in propylene glycol, room temperature (RT), over 7 weeks
# Protocol: The solubility and stability of ethanesulfonic acid, p-toluenesulfonic acid and hydrochloric acid salts of melflufen in propylene glycol were investigated. 10 mg of each melflufen salt was transferred to transparent 4 mL vials and propylene glycol (Merck Lot # K51750378936, 1.07478.2500) was added to a concentration of 20 mg/mL. The vials were shaken for a short time and stored at room temperature (RT, 20-25° C.).
# The stability of the melflufen salt solutions were analysed at weekly time points by Analytical HPLC-MS using an Agilent 1100 series Liquid Chromatograph/Mass Selective Detector (MSD) (Single Quadrupole) equipped with an electrospray interface and a UV diode array detector. Analysis was performed by using an ACE 3 C8 (3.0×50 mm) column with a gradient of 10-97% acetonitrile in 0.1% aqueous TFA over 3 min and a flow of 1 mL/min. UV was monitored at 305 nm. At each time point (0, 1, 2, 3, 4, 5, 6 and 7 weeks) 10 μL of the melflufen solution was diluted with 490 μL of acetonitrile before HPLC-MS analysis.
SMILES,Purity of melfufen in the liquid formulation containing a melfufen salt and propylene glycol at RT (0 weeks) [% relative peak area],Purity of melfufen in the liquid formulation containing a melfufen salt and propylene glycol at RT (1 week) [% relative peak area],Purity of melfufen in the liquid formulation containing a melfufen salt and propylene glycol at RT (2 weeks) [% relative peak area],Purity of melfufen in the liquid formulation containing a melfufen salt and propylene glycol at RT (3 weeks) [% relative peak area],Purity of melfufen in the liquid formulation containing a melfufen salt and propylene glycol at RT (4 weeks) [% relative peak area],Purity of melfufen in the liquid formulation containing a melfufen salt and propylene glycol at RT (5 weeks) [% relative peak area],Purity of melfufen in the liquid formulation containing a melfufen salt and propylene glycol at RT (6 weeks) [% relative peak area],Purity of melfufen in the liquid formulation containing a melfufen salt and propylene glycol at RT (7 weeks) [% relative peak area],stability on storage
"CCOC(=O)[C@H](Cc1ccc(F)cc1)NC(=O)[C@@H](N)Cc1ccc(N(CCCl)CCCl)cc1.Cc1ccc(S(=O)(=O)O)cc1 [melflufen p-toluenesulfonic acid salt, Ethyl (2S)-2-[[(2S)-2-amino-3-[4-[bis(2-chloroethyl)amino]phenyl]propanoyl]amino]-3-(4-fluorophenyl)propanoate;4-methylbenzenesulfonic acid]",100,96,95,93,91,89,88,87,good stability
"CCOC(=O)[C@H](Cc1ccc(F)cc1)NC(=O)[C@@H](N)Cc1ccc(N(CCCl)CCCl)cc1 [melflufen hydrochloric acid salt, L-Melphalanyl-4-fluoro-L-phenylalanine ethyl ester, reference compound]",100,100,95,94,92,89,87,85,good stability
"CCOC(=O)[C@H](Cc1ccc(F)cc1)NC(=O)[C@@H](N)Cc1ccc(N(CCCl)CCCl)cc1.CCS(=O)(=O)O [melflufen ethanesulfonic acid salt, ethanesulfonic acid;ethyl (2S)-2-[[(2S)-2-amino-3-[4-[bis(2-chloroethyl)amino]phenyl]propanoyl]amino]-3-(4-fluorophenyl)propanoate]",100,95,94,93,94,89,88,87,good stability
